This passage reports IC50 and Kd results from patent publication US20230096028A1, “BICYCLIC HETEROCYCLYL COMPOUNDS AND USES THEREOF” (Revolution Medicines, Inc., priority 2019, published 2023).

Assay [1] has as its system PC-9 cells (EGFR Ex19Del). The assay can be described thus: Potency Assay: pERK (SOS1 pERK IC50 Assay, AlphaLISA SureFire Ultra p-ERK1/2). The class given is cell-based. The following applies: Homo sapiens, read-out: SOS1 pERK IC50. Put shortly: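 Cellular pERK1/2 by AlphaLISA SureFire Ultra after 1 h compound exposure (37° C., highest concentration 10 μM, 3-fold steps, duplicates) of EGFR Ex19Del PC-9 cells seeded the day before. A 4-parameter fit of signal versus log concentration gives IC50.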
(In general: Bead proximity is the source of the signal in Alpha formats.)

The target of assay [2] is T1, SOS1 catalytic domain (residues 564-1049) (Homo sapiens, UniProt Q07889).
T1 sequence (Q07889 564-1049): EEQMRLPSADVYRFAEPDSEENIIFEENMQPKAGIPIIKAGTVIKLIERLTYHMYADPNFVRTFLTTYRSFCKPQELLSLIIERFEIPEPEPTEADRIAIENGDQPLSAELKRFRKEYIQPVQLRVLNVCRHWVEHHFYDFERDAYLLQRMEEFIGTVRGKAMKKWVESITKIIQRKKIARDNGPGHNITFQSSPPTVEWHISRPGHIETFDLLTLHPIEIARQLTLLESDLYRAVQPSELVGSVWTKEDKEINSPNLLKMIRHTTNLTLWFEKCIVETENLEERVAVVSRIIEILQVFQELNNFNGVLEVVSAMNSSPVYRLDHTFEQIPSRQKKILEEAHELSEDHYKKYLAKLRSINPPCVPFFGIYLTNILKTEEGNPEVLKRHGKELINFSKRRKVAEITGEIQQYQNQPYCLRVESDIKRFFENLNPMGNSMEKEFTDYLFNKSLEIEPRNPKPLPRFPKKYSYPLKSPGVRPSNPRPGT
Kind of assay: Potency Assay: binding affinity to SOS1 using Surface Plasmon Resonance (SPR). The following applies: immobilized SOS1 catalytic domain (residues 564-1049), read-out: SOS1 SPR Equilibrium Kd. Also noted: SOS1 catalytic domain (residues 564-1049) immobilized on a sensor chip. Put shortly:
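Kd was obtained by plotting binding response, taken just before association ended, versus compound concentration on a Biacore 8K. Compounds flowed at 50 μL/min over streptavidin-captured avi-SOS1 catalytic domain (~6000 RU), followed by buffer dissociation; HEPES 0.01 M/NaCl 0.15 M/0.05% P20 buffer, double-referenced.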

Assay [3] deals with T1, SOS1 catalytic domain (residues 564-1049). Kind of assay: Mode of Action Assay: inhibition of SOS1 nucleotide exchange activity (SOS1 TR-FRET IC50 Assay). For orientation: Time-resolved FRET reads energy transfer from a long-lived donor to a nearby acceptor.
Setting [4] is: PC-9 cells (EGFR Ex19Del), 1 hour incubation, AlphaLISA p-ERK1/2.

The IC50 is the midpoint of a concentration-inhibition curve. A word on the Kd: it is the concentration at which binding is half-saturated.

Structures can show the parent of a compound that is named as a salt. Where two headings read alike, the source gives them in different places.

For the compound `C[C@@H](Nc1nc(Cl)nc2c1CN(C(=O)N1CCOCC1)C2)c1cccc(C(F)(F)C2CNCCO2)c1` (stereo partly drawn) [Example 484, 2-chloro-N-[(1R)-1-{3-[difluoro(morpholin-2-yl)methyl]phenyl}ethyl]-6-(morpholine-4-carbonyl)-5H,6H,7H-pyrrolo[3,4-d]pyrimidin-4-amine], the IC50 in assay [1] (PC-9, 1 h) was below 1000 nM; in assay [3] it was below 1000 nM. The dissociation constant Kd in assay [2] was below 400 nM.

Regarding `C[C@@H](Nc1nc(Cl)nc2c1CN(C(=O)C13CN(C1)S(=O)(=O)C3)C2)c1cccc(C(F)F)c1F` [Example 297], the IC50 in assay [1] (setting [4]) and in assay [3] was below 1000 nM each time. Besides, the dissociation constant (Kd) in assay [2] is below 400 nM.

With `COc1nccc(C(=O)N2CCc3nc(Cl)nc(N[C@H](C)c4cc(N)cc(C(F)(F)F)c4)c3C2)n1` [Example 234], the IC50 in assay [1] (setting [4]) and in assay [3] was above 1000 nM in each case. For the same compound, in assay [2], the Kd is above 400 nM.

In the case of `C[C@@H](Nc1nc(Cl)nc2c1CN(C(=O)C1(C#N)CNC1)C2)c1cccc(C(F)F)c1F` [Example 328], the half-maximal inhibitory concentration (IC50) in assay [1] (setting [4]) and in assay [3] was below 1000 nM each time. Moreover, the Kd in assay [2] was below 400 nM.

As to `C[C@@H]1CN(C(=O)N2Cc3nc(Cl)nc(N[C@H](C)c4cc(N)cc(C(F)(F)F)c4)c3C2)C[C@H](C)N1` [Example 146], the half-inhibitory concentration (IC50) in assay [1] (setting [4]) and in assay [3] was below 1000 nM each time. In assay [2], the equilibrium dissociation constant (Kd) is below 400 nM.

`COCC1(S(=O)(=O)N2CCc3nc(Cl)nc(N[C@H](C)c4cc(N)cc(C(F)(F)F)c4)c3C2)CCC1` [Example 448, N-[(1R)-1-[3-amino-5-(trifluoromethyl)phenyl]ethyl]-2-chloro-6-{[1-(methoxymethyl)cyclobutyl]sulfonyl}-5H,6H,7H,8H-pyrido[4,3-d]pyrimidin-4-amine]: the half-maximal inhibitory concentration (IC50) was above 1000 nM in assay [1] (setting [4]) and below 1000 nM in assay [3]. Also, in assay [2], the Kd is below 400 nM.

Turning to `C[C@@H](Nc1nc(Cl)nc2c1CN(C(=O)C1(F)CN(C3COC3)C1)C2)c1cccc(C(F)F)c1F` [Example 329], the 50% inhibitory concentration (IC50) in assay [1] (setting [4]) and in assay [3] was below 1000 nM in each case. In addition, the Kd in assay [2] was below 400 nM.

Consider `C[C@@H](Nc1nc(Cl)nc2c1CN(C(=O)c1cnc3[nH]ccc3c1)C2)c1cc(N)cc(C(F)(F)F)c1` [Example 91], for which the 50% inhibitory concentration (IC50) in assay [1] (setting [4]) was below 1000 nM; in assay [3], above 1000 nM. Moreover, the Kd in assay [2] was above 400 nM.

For the compound `Nc1cc(CNc2nc(Cl)nc3c2CN(C(=O)N2CCOCC2)C3)cc(C(F)(F)F)c1` [Example 135, N-{[3-amino-5-(trifluoromethyl)phenyl]methyl}-2-chloro-6-(morpholine-4-carbonyl)-5H,6H,7H-pyrrolo[3,4-d]pyrimidin-4-amine], the IC50 in assay [1] (setting [4]) and in assay [3] was above 1000 nM in each case. Also, the Kd in assay [2] is above 400 nM.

Consider `C[C@@H](Nc1nc(Cl)nc2c1CN(C(=O)N1CCNC(=O)C1)C2)c1cccc(C(F)(F)F)c1` [Example 376], for which the half-maximal inhibitory concentration (IC50) in assay [1] (setting [4]) and in assay [3] was below 1000 nM each time. In assay [2], the Kd is below 400 nM.

For the compound `C[C@@H](Nc1nc(Cl)nc2c1CN(S(=O)(=O)C1CCCNC1)C2)c1cc(N)cc(C(F)(F)F)c1` (stereo partly drawn) [Example 49], the half-maximal inhibitory concentration (IC50) in assay [1] (setting [4]) and in assay [3] was below 1000 nM each time. Also, in assay [2], the Kd was below 400 nM.

Consider `C[C@@H](Nc1ncnc2c1CC(N1CC3(COC3)C1)CC2)c1cccc(C(F)F)c1F` (stereo partly drawn) [Example 442], for which the IC50 in assay [1] (setting [4]) is above 1000 nM; in assay [3], below 1000 nM. Moreover, in assay [2], the equilibrium dissociation constant (Kd) is below 400 nM.

For `C[C@@H](Nc1nc(Cl)nc2c1CN(C(=O)C1(F)CNC1)C2)c1cccc(C(F)F)c1F` [Example 282], the half-maximal inhibitory concentration (IC50) in assay [1] (setting [4]) and in assay [3] was below 1000 nM in each case. Further, the Kd in assay [2] was below 400 nM.

Regarding `COC1(C(=O)N2Cc3nc(C)nc(N[C@H](C)c4cccc(C(F)(F)CO)c4)c3C2)CCOCC1` [Example 239], the IC50 in assay [1] (setting [4]) was above 1000 nM; in assay [3] it was below 1000 nM. Also, the Kd in assay [2] is below 400 nM.

As to `C[C@@H](Nc1nc(Cl)nc2c1CN(C(=O)C1(F)CCNCC1)C2)c1cccc(C(F)F)c1F` [Example 284], the IC50 in assay [1] (setting [4]) and in assay [3] was below 1000 nM each time. For the same compound, the Kd in assay [2] is below 400 nM.

For `C[C@@H](Nc1nc(Cl)nc2c1CN(C(=O)C1C3COCC31)C2)c1cc(N)cc(C(F)(F)F)c1` (stereo partly drawn) [Example 94], the IC50 in assay [1] (setting [4]) and in assay [3] was below 1000 nM each time. Moreover, the dissociation constant (Kd) in assay [2] was below 400 nM.

For the compound `C[C@@H](Nc1nc(Cl)nc2c1C[N+](=C(N(C)C)N(C)C)C2)c1cccc(C(F)F)c1F` [Example 529, 1-[2-chloro-4-[[(1R)-1-[3-(difluoromethyl)-2-fluoro-phenyl]ethyl]amino]-5,7-dihydropyrrolo[3,4-d]pyrimidin-6-ium-6-ylidene]-N,N,N′,N′-tetramethyl-methanediamine formate], the IC50 is above 1000 nM in assay [1] (PC-9, 1 h) and below 1000 nM in assay [3]. The Kd in assay [2] is below 400 nM.

Turning to `C[C@@H](Nc1nc(Cl)nc2c1CN(C(=O)[C@@H]1COCCN1)C2)c1cccc(C(F)(F)F)c1` [Example 275], the 50% inhibitory concentration (IC50) in assay [1] (setting [4]) is above 1000 nM; in assay [3] it was below 1000 nM. Besides, the Kd in assay [2] is above 400 nM.

As for `C[C@@H](Nc1nc(Cl)nc2c1CN(C(=O)N1CCNCC1)C2)c1cc(N)cc(C(F)(F)F)c1` [Example 356], the IC50 in assay [1] (setting [4]) and in assay [3] was below 1000 nM in each case. For the same compound, the Kd in assay [2] is below 400 nM.

For the compound `C[C@@H](Nc1nc(Cl)nc2c1CN(S(=O)(=O)N1CCNCC1)CC2)c1cc(N)cc(C(F)(F)F)c1` [Example 183], the IC50 in assay [1] (setting [4]) and in assay [3] was below 1000 nM in each case. In assay [2], the equilibrium dissociation constant (Kd) was below 400 nM.

Regarding `COC1(C(=O)N2Cc3nc(Cl)nc(N[C@H](C)c4cccc(C(F)(F)F)c4)c3C2)CCOCC1` [Example 227], the half-maximal inhibitory concentration (IC50) in assay [1] (setting [4]) and in assay [3] was below 1000 nM throughout. The dissociation constant Kd in assay [2] was below 400 nM.

In the case of `C[C@@H](Nc1nc(Cl)nc2c1CN(C(=O)c1ccc3c(n1)CCNC3)C2)c1cc(N)cc(C(F)(F)F)c1` [Example 82], the IC50 in assay [1] (setting [4]) and in assay [3] was below 1000 nM each time. Also, the Kd in assay [2] was below 400 nM.

Consider `COC1(C(=O)N2Cc3nc(C(N)=O)nc(N[C@H](C)c4cccc(C(F)F)c4F)c3C2)CCOCC1` [Example 510, 4-{[(1R)-1-[3-(difluoromethyl)-2-fluorophenyl]ethyl]-amino}-6-(4-methoxyoxane-4-carbonyl)-5H,6H,7H-pyrrolo[3,4-d]pyrimidine-2-carboxamide], for which the half-maximal inhibitory concentration (IC50) was above 1000 nM in assay [1] (setting [4]) and below 1000 nM in assay [3]. In addition, the dissociation constant Kd in assay [2] is below 400 nM.

Turning to `C[C@@H](Nc1nc(Cl)nc2c1CN(C(=O)C1CCNCC1)C2)c1cc(N)cc(C(F)(F)F)c1` [Example 270], the IC50 is above 1000 nM in assay [1] (setting [4]) and below 1000 nM in assay [3]. Further, the equilibrium dissociation constant (Kd) in assay [2] is below 400 nM.

`C[C@@H](Nc1nc(Cl)nc2c1CN(C(=O)C1(O)COC1)CC2)c1cc(N)cc(C(F)(F)F)c1` [Example 226]: the 50% inhibitory concentration (IC50) in assay [1] (setting [4]) and in assay [3] was above 1000 nM each time. The Kd in assay [2] was below 400 nM.

As for `C[C@@H](Nc1nc(Cl)nc2c1CN(C(=O)[C@@H]1CNCCO1)C2)c1cccc(C(F)(F)F)c1` [Example 278], the IC50 in assay [1] (setting [4]) and in assay [3] was below 1000 nM throughout. Besides, the dissociation constant (Kd) in assay [2] is below 400 nM.

Take `C[C@@H](Nc1nc(Cl)nc2c1CN(C(=O)N1CCC13CNC3)C2)c1cccc(C(F)F)c1F` [Example 392]: the half-inhibitory concentration (IC50) in assay [1] (setting [4]) was above 1000 nM; in assay [3] it was below 1000 nM. The Kd in assay [2] is below 400 nM.

`C[C@@H](Nc1nc(Cl)nc2c1CN(C(=O)C1(O)COC1)C2)c1cccc(C(F)(F)F)c1` [Example 279]: the IC50 in assay [1] (setting [4]) and in assay [3] was below 1000 nM in each case. In assay [2], the Kd is above 400 nM.

As for `C[C@@H](Nc1nc(Cl)nc2c1CN(C(=O)N1CCN(C3COC3)CC1)C2)c1cccc(C(F)(F)CO)c1` [Example 357], the IC50 in assay [1] (setting [4]) and in assay [3] was below 1000 nM in each case. The equilibrium dissociation constant (Kd) in assay [2] is below 400 nM.

With `C[C@@H](Nc1nc(Cl)nc2c1CN(C(=O)c1cc(N3CCOCC3)ccn1)C2)c1cc(N)cc(C(F)(F)F)c1` [Example 68], the IC50 in assay [1] (setting [4]) and in assay [3] was below 1000 nM throughout. For the same compound, the Kd in assay [2] is below 400 nM.

Regarding `COC1(C(=O)N2Cc3nc(Cl)nc(N[C@H](C)c4cccc(C(F)F)c4F)c3C2)CCN(CC(F)(F)F)CC1` [Example 344], the IC50 in assay [1] (setting [4]) and in assay [3] was below 1000 nM throughout. The Kd in assay [2] was below 400 nM.
